Each block holds one molecule with its values, some of them ahead of it.
Columns and labels:
[1] = tested on: HCC cell lines, Mahlavu, PLC5, HepG2, and Huh7; assay: MTT cell viability test in HCC cell lines
Experimental: (§1) The HCC cell lines, Mahlavu, PLC5, HepG2, and Huh7, were cultured in Dulbecco's Modified Eagle Medium (DMEM; Seromed, Berlin, Germany) supplemented with 10% heat-inactivated fetal bovine serum, 100 μg/ml streptomycin, 100 μg/ml penicillin, and 2 mM L-glutamine in a humidified atmosphere containing 5% CO2 at 37° C. […] The cells were exposed to different concentrations of the small molecules for 72 hours. Control cells were incubated in the absence of small molecules. Afterwards, the cells were incubated with medium containing MTT for 2 hours. […] For the clonogenic assay, Huh7 cells were seeded out in appropriate dilutions in a 6-well plate and treated with selected small molecules at various concentrations for 15 days. Colonies were fixed with glutaraldehyde (6.0% v/v), stained with crystal violet (0.5% w/v), and counted.

Huh7 cells = assay: Clonogenic assay; type: cell-based; conditions: colony number at 10 μM; for inhibition at 10 µM: Homo sapiens, Huh-7, 360 h
Experimental: The HCC cell lines, Mahlavu, PLC5, HepG2, and Huh7, were cultured in Dulbecco's Modified Eagle Medium (DMEM; Seromed, Berlin, Germany) supplemented with 10% heat-inactivated fetal bovine serum, 100 μg/ml streptomycin, 100 μg/ml penicillin, and 2 mM L-glutamine in a humidified atmosphere containing 5% CO2 at 37° C. The viability of the exposed cells was determined using the MTT cell viability assay kit (Sigma-Aldrich, St. Louis, USA), according to the manufacturer's instructions. […] The cells were exposed to different concentrations of the small molecules for 72 hours. Control cells were incubated in the absence of small molecules. Afterwards, the cells were incubated with medium containing MTT for 2 hours. The optical density at 450 nm was measured using a microplate reader (Spectral Max250). For the clonogenic assay, Huh7 cells were seeded out in appropriate dilutions in a 6-well plate and treated with selected small molecules at various concentrations for 15 days. Colonies were fixed with glutaraldehyde (6.0% v/v), stained with crystal violet (0.5% w/v), and counted.

HCC cell lines = assay: Drug efficacy label of top 10 CMap drugs (MTT or clonogenic); type: cell-based; conditions: Table 2-3; labels (1) and (4); gene set in which the drug ranked top 10;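 note: label 1 means effective by MTT or clonogenic assay and 4 means ineffective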
Experimental: as §1

[2] = Table 3-1, HCC cell lines, 72 hours, MTT
[3] = 72 h, Table 3-1, HCC cell lines, MTT
[4] = 72 h, Table 2-2, HCC cell lines, MTT

Molecule: tyloxapol
IC50 [1, 2]: 5 to 10 µM

Molecule: COc1cnc(NS(=O)(=O)c2ccc(N)cc2)nc1 [sulfametoxydiazine]
IC50 [1, 3]: > 10 µM

Molecule: C[n+]1cc2c3c(ccc2c2ccc4cc5c(cc4c21)OCO5)OCO3 [sanguinarine]
IC50 ([1]; 72 h): 0.1 to 1 µM

Molecule: CC[C@H]1CN2CCc3cc(OC)c(OC)cc3[C@@H]2C[C@@H]1C[C@H]1NCCc2cc(OC)c(OC)cc21 [emetine]
IC50 [1, 3]: 0.1 to 1 µM

Molecule: O=C(CCCN1CCC2(CC1)C(=O)NCN2c1ccccc1)c1ccc(F)cc1 [spiperone]
inhibition at 10 µM (Huh7 cells; Table 3-1, 15 days): > 50%

Molecule: Cc1ccc(S(=O)(=O)NC(=O)NN2CC3CCCC3C2)cc1 (centres unmarked) [gliclazide]
IC50 [1, 3]: > 10 µM
Clonogenic assay (Huh7 cells; Table 3-1, 15 days): Ineffective

Molecule: C=C(NC(=O)C(=C)NC(=O)c1csc(C2=N[C@@H]3c4csc(n4)[C@H]4NC(=O)c5csc(n5)[C@H]([C@](C)(O)[C@@H](C)O)NC(=O)[C@H]5CSC(=N5)/C(=C/C)NC(=O)[C@H]([C@@H](C)O)NC(=O)c5csc(n5)[C@]3(CC2)NC(=O)[C@H](C)NC(=O)C(=C)NC(=O)[C@H](C)NC(=O)[C@H]([C@@H](C)CC)N[C@@H]2C=Cc3c([C@H](C)O)cc(nc3[C@H]2O)C(=O)O[C@@H]4C)n1)C(N)=O [thiostrepton]
IC50 [1, 3]: 1 to 5 µM

Molecule: OCCN(CCO)c1nc(N2CCCCC2)c2nc(N(CCO)CCO)nc(N3CCCCC3)c2n1 [dipyridamole]
IC50 [1, 4]: > 10 µM
IC50 [1, 3]: > 10 µM
inhibition at 10 µM (Huh7 cells; Table 3-1, 15 days): > 50%
Clonogenic assay (Huh7 cells; Table 2-2, 15 days): Effective (Effectiveness in clonogenic assay is defined as reducing more than 50% colony number at 10 μM)

Molecule: Cc1c2ccncc2c(C)c2c1[nH]c1ccccc12 [ellipticine]
IC50 [1, 3]: 0.1 to 1 µM

Molecule: CC[C@@]1(O)C(=O)OCc2c1cc1n(c2=O)Cc2cc3ccccc3nc2-1 [camptothecin]
IC50 [1, 3]: 0.1 to 1 µM

Molecule: CSc1ccc2c(c1)N(CCC1CCCCN1C)c1ccccc1S2 (centres unmarked) [thioridazine]
drug efficacy label (HCC cell lines): thioridazine (1)

Molecule: Oc1ccc(C=Cc2cc(O)cc(O)c2)cc1 [resveratrol]
drug efficacy label (HCC cell lines): resveratrol (4)

Second part, led by results:

IC50 [1, 3]: > 10 µM
Molecule: C#CCN(C)Cc1ccccc1 [pargyline]

IC50 [1, 4]: > 10 µM
IC50 [1, 3]: > 10 µM
Molecule: CC(=O)Oc1cc(C(F)(F)F)ccc1C(=O)O [triflusal]
Clonogenic assay (Huh7 cells; Table 2-2, 15 days): Ineffective
Clonogenic assay (Huh7 cells; Table 3-1, 15 days): Ineffective

IC50 [1, 3]: > 10 µM
Molecule: CC1CC(OC(=O)C(O)c2ccccc2)CC(C)(C)N1C (centres unmarked) [eucatropine]

IC50 [1, 3]: 5 to 10 µM
Molecule: CC(C)COCC(CN(Cc1ccccc1)c1ccccc1)N1CCCC1 (centres unmarked) [bepridil]

IC50 [1, 3]: > 10 µM
Molecule: COc1ccc2c(OC)c3ccoc3nc2c1OC [skimmianine]
inhibition at 10 µM (Huh7 cells; Table 3-1, 15 days): > 50%

IC50 [1, 3]: > 10 µM
Molecule: Cc1cc2cc3c(C)cc(=O)oc3c(C)c2o1 [trioxysalen]
inhibition at 10 µM (Huh7 cells; Table 3-1, 15 days): > 50%

IC50 [1, 3]: > 10 µM
Molecule: Clc1ccc(C(OCCN2CCCCC2)c2ccccc2)cc1 (centres unmarked) [cloperastine]
drug efficacy label (HCC cell lines): cloperastine (4)
inhibition at 10 µM (Huh7 cells; Table 3-1, 15 days): > 50%

IC50 [1, 2]: 5 to 10 µM
Molecule: O=C1Nc2ccc3ncsc3c2/C1=C/Nc1ccc(S(=O)(=O)Nc2ccccn2)cc1 [GW-8510]

IC50 [1, 3]: > 10 µM
Molecule: C#C[C@]1(O)CC[C@H]2[C@@H]3CCC4=CC(=O)CC[C@@H]4[C@H]3CC[C@@]21CC [levonorgestrel]

IC50 [1, 2]: > 10 µM
Molecule: CC1=CC(=O)C2=C(C)CC[C@@H]3[C@H](OC(=O)[C@H]3C)[C@@H]12 [leucomisine]
Clonogenic assay (Huh7 cells; Table 3-1, 15 days): Ineffective

IC50 [1, 3]: > 10 µM
Molecule: COc1ccc([C@@H]2Sc3ccccc3N(CCN(C)C)C(=O)[C@@H]2OC(C)=O)cc1 [diltiazem]

IC50 [1, 4]: > 10 µM
Molecule: CCOc1cc(CC(=O)N[C@@H](CC(C)C)c2ccccc2N2CCCCC2)ccc1C(=O)O [Repaglinide]
drug efficacy label (HCC cell lines): repaglinide (4)
Clonogenic assay (Huh7 cells; Table 2-2, 15 days): Ineffective

IC50 [1, 3]: > 10 µM
Molecule: CC[C@H](c1ccc(O)cc1)[C@@H](CC)c1ccc(O)cc1 [hexestrol]
drug efficacy label (HCC cell lines): hexestrol (4)
Clonogenic assay (Huh7 cells; Table 3-1, 15 days): Ineffective

IC50 [1, 3]: 0.1 to 1 µM
Molecule: CCCCC(CC)CNC(=N)NC(=N)NCCCCCCNC(=N)NC(=N)NCC(CC)CCCC (centres unmarked) [alexidine]

IC50 [1, 3]: > 10 µM
Molecule: C[C@]12CC[C@@H]3c4ccc(O)cc4CC[C@H]3[C@@H]1C[C@@H](O)[C@@H]2O [estriol]

IC50 [1, 2]: 0.1 to 1 µM
Molecule: CC1=C(CO)C(=O)O[C@@H]([C@@H](C)[C@H]2CC[C@H]3[C@@H]4C[C@H]5O[C@]56[C@@H](O)C=CC(=O)[C@]6(C)[C@H]4CC[C@]23C)C1 [withaferin A]

— US20110287953A1, “METHOD FOR DISCOVERING POTENTIAL DRUGS” (priority 2010, published 2011)
